In PubChem BioAssay AID248 (DTP/NCI, 2004):
“And” between values parts separate entries of the source, which are not always exact repeats. Equal values may be shown once. Inconclusive results and toxic doses are left out. No stated cut-off is given here; in the data, active means T/C of 150% or more; inactive means T/C below 125%.

System: L1210 leukemia ip in BDF1 mice, survival T/C
Experiment: NCI In Vivo Anticancer Drug Screen. Data for tumor model L1210 Leukemia (intraperitoneal) in B6D2F1 (BDF1) mice
Conditions: endpoint: mean survival time, higher = longer survival
Outline: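 Tumor cells were implanted, animals were treated, and survival was followed. The result divides the treated measurement by the vehicle-control measurement.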

[1] = dose: 100.0 mg/kg/injection, schedule: Q01DX001 (ip), vehicle: saline
[2] = dose: 200.0 mg/kg/injection, schedule: Q01DX001 (ip), vehicle: saline
[3] = dose: 100.0 mg/kg/injection, schedule: Q04DX003 (ip), vehicle: saline
[4] = dose: 200.0 mg/kg/injection, schedule: Q04DX003 (ip), vehicle: saline
[5] = dose: 400.0 mg/kg/injection, schedule: Q04DX003 (ip), vehicle: saline
[6] = dose: 100.0 mg/kg/injection, schedule: Q01DX009 (ip), vehicle: Klucel (hydroxypropylcellulose) (HPC)
[7] = dose: 200.0 mg/kg/injection, schedule: Q01DX009 (ip), vehicle: Klucel (hydroxypropylcellulose) (HPC)
[8] = dose: 400.0 mg/kg/injection, schedule: Q01DX009 (ip), vehicle: Klucel (hydroxypropylcellulose) (HPC)
[9] = dose: 100.0 mg/kg/injection, schedule: Q01DX009 (ip), vehicle: saline with Tween-80

Measured: T/C

O=S1(=O)C(Cl)(Cl)SC(Cl)(Cl)S(=O)(=O)C1(Cl)Cl
inactive: dose: 12.5 mg/kg/injection, schedule: Q01DX009 (ip), vehicle: saline 101 % of control | dose: 25.0 mg/kg/injection, schedule: Q01DX009 (ip), vehicle: saline 93 % of control | dose: 50.0 mg/kg/injection, schedule: Q01DX009 (ip), vehicle: saline 101 % of control | dose: 50.0 mg/kg/injection, schedule: Q04DX003 (ip), vehicle: saline 93 % of control | [1] 96 % of control | [2] 98 % of control

O=S(=O)(O)C(I)(I)S(=O)(=O)O
inactive: [3] 99 % of control | [4] 100 % of control | [5] 95 % of control

CCCCCCOC(=O)C(N)Cc1ccc(N(CCCl)CCCl)cc1 (stereo unspecified)
inactive: dose: 2.8 mg/kg/injection, schedule: Q01DX009 (ip), vehicle: other 110 % of control | dose: 5.6 mg/kg/injection, schedule: Q01DX001 (ip), vehicle: other 110 % of control | dose: 5.6 mg/kg/injection, schedule: Q01DX009 (ip), vehicle: other 106 % of control | dose: 11.25 mg/kg/injection, schedule: Q01DX001 (ip), vehicle: other 110 % of control | dose: 11.25 mg/kg/injection, schedule: Q01DX009 (ip), vehicle: other 116 % of control | dose: 22.5 mg/kg/injection, schedule: Q01DX001 (ip), vehicle: other 121 % of control

COc1ccc2[nH]c3c(c2c1)CSc1ccccc1-3
inactive: [6] 110 % of control | [7] 104 % of control | [8] 94 % of control

Cc1ccc2nc(-c3ccc(N)cc3)sc2c1
inactive: [9] 96 % of control | dose: 200.0 mg/kg/injection, schedule: Q01DX009 (ip), vehicle: saline with Tween-80 91 % of control

CCOCc1ccc(O)c2ncccc12
inactive: dose: 264.0 mg/kg/injection, schedule: Q01DX001 (ip), vehicle: carboxymethylcellulose (CMC) 106 % of control | dose: 400.0 mg/kg/injection, schedule: Q01DX001 (ip), vehicle: carboxymethylcellulose (CMC) 107 % of control

CCCCCCCCCCCCCC(=O)O (tested in a mixture with another compound)
inactive: dose: 5.0 mg/kg/injection, schedule: Q01DX001 (ip), vehicle: saline 101 % of control | dose: 10.0 mg/kg/injection, schedule: Q01DX001 (ip), vehicle: saline 95 % of control | dose: 20.0 mg/kg/injection, schedule: Q01DX001 (ip), vehicle: saline 102 % of control | dose: 40.0 mg/kg/injection, schedule: Q01DX001 (ip), vehicle: saline 102 % of control | dose: 80.0 mg/kg/injection, schedule: Q01DX001 (ip), vehicle: saline 90 % of control | [1] 98 % of control

COc1ccc(OC)c(N)c1
inactive: dose: 25.0 mg/kg/injection, schedule: Q01DX009 (ip), vehicle: Klucel (hydroxypropylcellulose) (HPC) 88 % of control | dose: 50.0 mg/kg/injection, schedule: Q01DX009 (ip), vehicle: Klucel (hydroxypropylcellulose) (HPC) 93 % of control | [6] 93 % of control

N#CCCNC(=O)c1ccccc1
inactive: dose: 100.0 mg/kg/injection, schedule: Q01DX001 (ip), vehicle: acetone 107 % of control | dose: 100.0 mg/kg/injection, schedule: Q01DX009 (ip), vehicle: acetone 90 % of control | [3] 103 % of control | dose: 200.0 mg/kg/injection, schedule: Q01DX001 (ip), vehicle: acetone 102 % of control | dose: 200.0 mg/kg/injection, schedule: Q01DX009 (ip), vehicle: acetone 92 % of control | [4] 94 % of control | dose: 400.0 mg/kg/injection, schedule: Q01DX001 (ip), vehicle: acetone 102 % of control | dose: 400.0 mg/kg/injection, schedule: Q01DX009 (ip), vehicle: acetone 90 % of control | [5] 101 % of control

O=C(O)CSc1cc(-c2ccc(Cl)cc2)s[s+]1
inactive: dose: 3.12 mg/kg/injection, schedule: Q01DX009 (ip), vehicle: water 98 % of control | dose: 6.25 mg/kg/injection, schedule: Q01DX009 (ip), vehicle: water 97 % of control | dose: 12.5 mg/kg/injection, schedule: Q01DX009 (ip), vehicle: water 96 % of control | dose: 12.5 mg/kg/injection, schedule: Q04DX003 (ip), vehicle: water 94 % of control | dose: 25.0 mg/kg/injection, schedule: Q04DX003 (ip), vehicle: water 93 % of control | dose: 50.0 mg/kg/injection, schedule: Q04DX003 (ip), vehicle: water 86 % of control

BrCc1ccc(Br)cc1
inactive: dose: 100.0 mg/kg/injection, schedule: Q01DX001 (ip), vehicle: carboxymethylcellulose (CMC) 96 % of control | dose: 200.0 mg/kg/injection, schedule: Q01DX001 (ip), vehicle: carboxymethylcellulose (CMC) 91 % of control

Nc1[nH]nc2nc(-c3ccccc3)cnc12
inactive: dose: 25.0 mg/kg/injection, schedule: Q01DX009 (ip), vehicle: saline with Tween-80 121 % of control | dose: 50.0 mg/kg/injection, schedule: Q01DX009 (ip), vehicle: saline with Tween-80 110 % of control | [9] 95 % of control and 102 % of control | dose: 100.0 mg/kg/injection, schedule: Q04DX003 (ip), vehicle: saline with Tween-80 94 % of control | dose: 200.0 mg/kg/injection, schedule: Q04DX003 (ip), vehicle: saline with Tween-80 92 % of control | dose: 400.0 mg/kg/injection, schedule: Q04DX003 (ip), vehicle: saline with Tween-80 92 % of control

CN(C)N=Nc1ccccc1I
inactive: [6] 103 % of control | [7] 104 % of control and 105 % of control | [8] 113 % of control and 116 % of control | dose: 600.0 mg/kg/injection, schedule: Q01DX009 (ip), vehicle: Klucel (hydroxypropylcellulose) (HPC) 115 % of control

CCS(=O)(=O)CS(=O)(=O)C(C)(C)C
inactive: dose: 100.0 mg/kg/injection, schedule: Q01DX001 (ip), vehicle: Klucel (hydroxypropylcellulose) (HPC) 98 % of control | dose: 200.0 mg/kg/injection, schedule: Q01DX001 (ip), vehicle: Klucel (hydroxypropylcellulose) (HPC) 91 % of control | dose: 400.0 mg/kg/injection, schedule: Q01DX001 (ip), vehicle: Klucel (hydroxypropylcellulose) (HPC) 94 % of control

C[CH2][Sn](=[S])[S][Sn](=[S])[CH2]C
inactive: dose: 100.0 mg/kg/injection, schedule: Q04DX002 (ip), vehicle: saline with Tween-80 102 % of control | dose: 200.0 mg/kg/injection, schedule: Q04DX002 (ip), vehicle: saline with Tween-80 94 % of control | dose: 400.0 mg/kg/injection, schedule: Q04DX002 (ip), vehicle: saline with Tween-80 97 % of control

O=C1CCC(c2ccccc2)=NN1
inactive: dose: 100.0 mg/kg/injection, schedule: Q04DX003 (ip), vehicle: Klucel (hydroxypropylcellulose) (HPC) 93 % of control | dose: 200.0 mg/kg/injection, schedule: Q04DX003 (ip), vehicle: Klucel (hydroxypropylcellulose) (HPC) 95 % of control | dose: 400.0 mg/kg/injection, schedule: Q04DX003 (ip), vehicle: Klucel (hydroxypropylcellulose) (HPC) 106 % of control

ClCCC(c1ccccc1)N1CCCCC1 (stereo unspecified)
inactive: dose: 44.0 mg/kg/injection, schedule: Q01DX001 (ip), vehicle: saline 97 % of control and 106 % of control | dose: 66.0 mg/kg/injection, schedule: Q01DX001 (ip), vehicle: saline 96 % of control and 97 % of control | dose: 150.0 mg/kg/injection, schedule: Q01DX001 (ip), vehicle: saline 97 % of control and 92 % of control | [2] 93 % of control
